Numbering of substitutions follows the chain as printed. Names may count otherwise. Where two headings read alike, the source gives them in different places. Values belong to the molecule of their own block, whether it stands above or below them.
What was measured:
[1] = target: T1, heparinase II (Pedobacter heparinus, UniProt C6XZB6); assay: pCMB modification and inactivation of heparinase II; assay type: biochemical, Flavobacterium heparinum
T1 sequence (C6XZB6 26-772): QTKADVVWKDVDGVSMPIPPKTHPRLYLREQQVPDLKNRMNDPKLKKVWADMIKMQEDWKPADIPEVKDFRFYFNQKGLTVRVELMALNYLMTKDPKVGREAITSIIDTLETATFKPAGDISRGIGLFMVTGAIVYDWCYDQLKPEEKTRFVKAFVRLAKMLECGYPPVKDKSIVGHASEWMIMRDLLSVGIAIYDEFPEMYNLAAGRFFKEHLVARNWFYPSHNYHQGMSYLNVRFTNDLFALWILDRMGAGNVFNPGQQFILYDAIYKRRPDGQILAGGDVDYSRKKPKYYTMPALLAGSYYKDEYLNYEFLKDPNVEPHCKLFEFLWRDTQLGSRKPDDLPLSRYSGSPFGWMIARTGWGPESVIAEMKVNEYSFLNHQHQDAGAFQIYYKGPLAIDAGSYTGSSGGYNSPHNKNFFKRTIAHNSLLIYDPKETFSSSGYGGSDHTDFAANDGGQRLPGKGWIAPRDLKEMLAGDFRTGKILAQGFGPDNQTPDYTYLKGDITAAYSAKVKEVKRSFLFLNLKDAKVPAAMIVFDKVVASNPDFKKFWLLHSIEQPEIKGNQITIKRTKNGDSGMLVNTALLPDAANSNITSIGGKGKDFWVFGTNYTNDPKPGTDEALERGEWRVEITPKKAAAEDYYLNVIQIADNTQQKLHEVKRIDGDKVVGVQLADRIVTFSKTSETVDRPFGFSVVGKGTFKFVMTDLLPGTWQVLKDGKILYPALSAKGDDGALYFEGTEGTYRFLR
From the text: (§1) Heparinase II Activity Assay. Native heparinase II from Flavobacterium heparinum, was purified as described previously (Godavarti, R., and Sasisekharan, R (1996c) Biochem. Biophys. Res. Comm. 229, 770-777). The UV 232 nm assay to quantify native heparinase II enzymatic activity was similar to that reported for heparinase I (Bernstein, H., Yang, V. C., Cooney, C. L., Langer, R. (1988) Meth. Enzym. 137, 515-29). Briefly, the course of the reaction is monitored by measuring the increase in absorbance at 232 nm as a function of time under saturating substrate concentrations. With heparin as the substrate, the reaction was carried out at a concentration of 4 mg/ml in 50 mM sodium phosphate buffer, pH 7.3. With 2 mg/ml heparan sulfate, the reaction was measured in 50 mM sodium phosphate buffer, pH 6.9 (Sasisekharan, R., Moses, M. A., Nugent, M. A., Cooney, C. L., Langer, R. (1994) Proc. Natl. Acad. Sci., USA 91, 1524-1528). The temperature for all enzymatic activity measurements was kept constant at 35° C.
pCMB Modification Studies. […]. A control reaction mixture containing vehicle alone was run in tandem. At fixed time intervals, aliquots were withdrawn for the UV 232 nm enzyme activity assay.
(B) Reactivation of pCMB—modified heparinase II with DTT. Heparinase II (50 μg/ml) was incubated with 5 μM pCMB for 4 minutes and an aliquot was withdrawn to determine the fractional activity retained. DTT (10 mM) was then immediately added to the reaction mixture and to the control, which contained no pCMB. The mixtures were incubated at 4° C. Heparinase II activity was measured every half hour.
(C) Effect of salt on the inactivation of heparinase II by pCMB. Heparinase II was incubated with 5 μM pCMB in 50 mM sodium phosphate buffer, pH 7.0, with different salt concentrations (30, 60, 110, 180, 300, and 500 mM NaCl). A control mixture, which contained no additional salt, was also incubated with pCMB.
(D) Substrate protection of heparinase II against pCMB modification. Heparinase II (50 μg/ml) was preincubated with either 4 mg/ml heparin or 2 mg/ml heparan sulfate for 30 minutes prior to the addition of 5 μM pCMB and then the time course of inactivation was determined with the heparinase II activity assay.
(E) Quantification of pCMB—modified residues of heparinase II. Quantification of pCMB-modified residues of heparinase II was determined by difference spectra. […] The change in absorbance at 250 nm was monitored every 30 seconds for 10 minutes. The number of modified residues was determined using ∈=7,600 M^−1 cm^−1 (Boyer, P. D. (1952) J. Am. Chem. Soc. 76, 4331-4337). Heparinase II activity assays were completed under identical conditions with heparin as the substrate.
[…]. Less than 2% of total heparinase II enzymatic activity remained after this time interval. […]. Modified heparinase II was separated and concentrated. pCMB was removed via addition of DTT. [^3H]NEM was added to the reaction mixture; unreacted tritium was separated by RPHPLC and heparinase II was digested with Lys-C.

[2] = target: T1, heparinase II; assay: DEPC inactivation of heparinase II and reactivation with hydroxylamine; assay type: biochemical, Flavobacterium heparinum; conditions: for initial activity recovered by DEPC-modified enzyme: 500 mM hydroxylamine; for kinact/KI: read-out: second-order rate constant of inactivation (converted)
[3] = Heparinase I UV 232 nm activity assay as a function of heparin concentration (Kcat, Km); assay type: biochemical, porcine; conditions: for Kcat / Km: heparin 0 to 4 mg/ml, 5 mM calcium acetate, pH 7.0; for Kcat: 100 mM MOPS
From the text: as §1
Heparinase I Activity Assay. The UV 232 nm assay to quantify heparinase I enzymatic activity was similar to that described in Example 1. With heparin as the substrate, the reaction was carried out at a concentration of 4 mg/ml in 100 mM MOPS, 5 mM calcium acetate, pH 7.0. The temperature for all enzymatic activity measurements was kept constant at 30° C. For the inactivation kinetic profiles, activity was measured as outlined above at precise time points.
(§2) Heparinase I Activity Assays: The UV 232 nm assay was used as described in Example 1. When measuring the enzyme activity as a function of heparin concentration, heparin concentrations varied from 0 to 4 mg/ml at a fixed calcium concentration of 5 mM (100 mM MOPS buffer/5 mM calcium acetate, pH 7.0). The data was then fit to an non-linear equation to determine Kcat and Km of heparinases I. Heparinase mutant activity was also investigated as a function of calcium concentration ranging from 0 to 10 mM. […] Activity is expressed as IU-μmol product formed/min using ∈=−3800-M^−1CM^−1.

[4] = Heparinase I activity as a function of calcium concentration (K0.5, calcium dependence); assay type: biochemical
Experimental: as §2

[5] = Heparin-POROS affinity chromatography; assay type: binding; conditions: for NaCl: salt concentration at which enzyme elutes from heparin-POROS column, 10 mM Tris, 1 mM EDTA pH 7.0
Experimental: Heparin-POROS chromatography: About 30-40 μg of -L r-heparinase I and the various mutant enzymes were injected into a heparin POROS (4.6 mm×100) column (PerSeptive BioSystems, Framingham, Mass.) connected to BioCAD system (PerSeptive BioSystems). Proteins were eluted using a linear gradient of […] NaCl in 10 min (10 mM Tris, 1 mM EDTA pH 7.0) and monitored at 210 nm. EDTA was added to chelate any calcium ions that may be present in the buffers.

[6] = Fluorescence competition for calcium with probe rhod-5N; conditions: apparent dissociation constant of rhod-5N for calcium with 3 μM enzyme; lower Kd′ means less binding of calcium by heparinase I
Experimental: Fluorescence Competition. To determine the effect of mutations in CB-1 and CB-2 on the ability of heparinase I to bind calcium, mutants with a dramatic drop in activity were tested for their ability to bind calcium. To accomplish this, we examined the ability of heparinase I and mutants to compete for free calcium with the calcium-chelating fluorescence probe rhod-5N. The fluorescence probe rhod-5N was dissolved and diluted in buffer A (10 mM MOPS and 100 mM KCl, pH 6.5). Buffer A and the water used in the study were run through a Chelex Resin column to remove trace amounts of calcium. In the absence of calcium, rhod-5N is not fluorescent, however upon binding calcium rhod-5N is fluorescent with an emission λmax of 576 nm. Before titration, rhod-5N and heparinase I were added to a quartz cuvette such that the final concentration of rhod-5N in the cuvette was 0.3 μM and heparinase I is 3 μM. To this solution was added aliquots of a calcium solution (20 mM) which had been previously equilibrated with 0.3 μM rhod-5N and 3 μM heparinase I. The stock was added such that the calcium concentration in the cuvette was 50, 100, 200, 500, 1000, 5000 μM. After allowing the solution to come to equilibrium, the sample was scanned from 560 nm to 600 nm with the excitation wavelength fixed at […]. The plot of I/Imax versus [Ca^++] was fitted to a non-linear equation to determine the apparent Kd (Kd′) value. Thus, Kd′ values represent the apparent dissociation constants for the fluorescence probe rhod-5N. Control samples without heparinase I were included in the study.

[7] = calcium concentration at which half of the maximum enzyme activity was observed, calcium 0 to 10 mM, Table 4 first K0.5 column

Molecule: O=C(O)c1cc[c]([Hg][Cl])cc1 [pCMB, p(chloromercuri)benzoate]
- time to complete inactivation of heparinase II ([1]; 10 μM): ≤ 15 min
- loss of activity ([1]; 20 μM pCMB): 98%
- number of cysteines modified ([1]; 20 μM pCMB): 1.06 cysteines
- first-order rate constant of inactivation ([1]; 500 mM salt): 0.06 min⁻¹
- drop of first order rate constant of inactivation ([1]; between 0 and 100 mM NaCl, 5 μM pCMB): 2 fold
- decrease of first order rate constant of inactivation ([1]; between 0 and 300 mM NaCl, 5 μM pCMB): more than 4 fold
- k, first-order rate constant of inactivation ([1]; pH 5.0): 0.16 min⁻¹
- k, first-order rate constant of inactivation ([1]; pH 6.0): 0.14 min⁻¹
- k, first-order rate constant of inactivation ([1]; pH 7.0): 0.21 min⁻¹
- second-order rate constant for the inactivation ([1]; pH 7.0, 4° C.): 667 M⁻¹ s⁻¹
- k, first-order rate constant of inactivation ([1]; pH 8.0): 0.24 min⁻¹
- total heparinase II enzymatic activity remaining ([1]; stoichiometric amount of pCMB, 15 minutes): Less than 2%
- pCMB inactivation (Table 1 value) ([1]; substrate heparan sulfate, protection reagent heparan sulfate): 0.09
- pCMB inactivation (Table 1 value) ([1]; substrate heparan sulfate, protection reagent heparin): 0.16
- pCMB inactivation (Table 1 value) ([1]; substrate heparan sulfate, protection reagent none): 0.21
- pCMB inactivation (Table 1 value) ([1]; substrate heparin, protection reagent heparan sulfate): 0.10
- pCMB inactivation (Table 1 value) ([1]; substrate heparin, protection reagent heparin): 0.16
- pCMB inactivation (Table 1 value) ([1]; substrate heparin, protection reagent none, 5 μM pCMB): 0.22

Molecule: NO [Hydroxylamine]
- initial activity recovered by DEPC-modified enzyme ([2]; 8 hours, pH 7.0): about 90%
- initial activity recovered by DEPC-modified enzyme ([2]; approximately 1.5 hours, pH 7.0, after inactivation to 50%): about 80%
- activity restored after DEPC modification ([2]; pH 8): over 70%

Molecule: CCOC(=O)OC(=O)OCC [DEPC, diethylpyrocarbonate]
- loss of heparinase II enzymatic activity ([2]; 2 mM DEPC, 10 minutes, towards heparin and heparan sulfate): 90%
- number of histidines modified ([2]; 2 mM DEPC, ten minutes, pH 7.0): roughly three
- kinact/KI ([2]; heparan sulfate as the substrate): 4 M⁻¹ s⁻¹
- kinact/KI ([2]; heparin as the substrate): 2.67 M⁻¹ s⁻¹

Now from value to molecule, other results behind:

- Kd [6]: 116 µM
B1: D212A/G213A/T216A: heparinase I CB-1 triple mutant (protein, UniProt Q05819 22-384, looked up, variant D212A G213A T216A)
Heparin lyase I: QQKKSGNIPYRVNVQADSAKQKAIIDNKWVAVGINKPYALQYDDKLRFNGKPSYRFELKAEDNSLEGYAAGETKGRTELSYSYATTNDFKKFPPSVYQNAQKLKTVYHYGKGICEQGSSRSYTFSVYIPSSFPDNATTIFAQWHGAPSRTLVATPEGEIKTLSIEEFLALYDRMIFKKNIAHDKVEKKDKAAKIAYVAGKPNGWKVEQGGYPTLAFGFSKGYFYIKANSDRQWLTDKADRNNANPENSEVMKPYSSEYKTSTIAYKMPFAQFPKDCWITFDVAIDWTKYGKEANTILKPGKLDVMMTYTKNKKPQKAHIVNQQEILIGRNDDDGYYFKFGIYRVGNSTVPVTYNLSGYSETAR
- decrease in Kcat compared to wild-type r-heparinase I [3]: ~5 fold
- Kcat [3]: 20 s⁻¹
- Km [3]: 3.16 µM
- K0.5 ([4]; Table 4 second K0.5 column): 730 µM
- K0.5 [4, 7]: 730 µM
- NaCl [5]: 495 mM

- elution salt concentration / heparin binding relative to wild-type r-heparinase I, in words [5]: comparable to wild-type r-heparinase I
- Kd [6]: 216 µM
B2: N375A: heparinase I CB-2 mutant, asparagine 375 changed to alanine (protein, UniProt Q05819 22-384, looked up, variant N375A)
Heparin lyase I: B1 Heparin lyase I with A191D, A192G, A195T, N354A
- decrease in Kcat compared to wild-type r-heparinase I [3]: about 10 fold
- Kcat [3]: 10 s⁻¹
- Km [3]: 0.88 µM
- decrease in Kcat compared to wild-type r-heparinase I ([3]; listed as N375): more than 9 fold
- K0.5 ([4]; Table 4 second K0.5 column): 60 µM
- K0.5 [4, 7]: 60 µM
- NaCl [5]: 490 mM

- Kd [6]: 175 µM
B3: E381A: heparinase I CB-2 mutant, glutamate 381 changed to alanine (protein, UniProt Q05819 22-384, looked up, variant E381A)
Heparin lyase I: B1 Heparin lyase I with A191D, A192G, A195T, E360A
- decrease in Kcat compared to wild-type r-heparinase I [3]: about 10 fold
- Kcat [3]: 10 s⁻¹
- Km [3]: 0.52 µM
- K0.5 ([4]; Table 4 second K0.5 column): 180 µM
- K0.5 [4, 7]: 180 µM
- NaCl [5]: 505 mM
